Measurements reported in ChEMBL document CHEMBL1201862, “PubChem BioAssay data set” (2004).
Active and inactive are the calls of the source.

Assays:
Cytochrome P450 2C19 = Cytochrome P450 2C19 (Homo sapiens, UniProt P33261); assay: Cytochrome panel assay with activity outcomes. Panel member name: p450-cyp2c19 Compounds with AC50 equal or less than 10 uM are considered active; type: functional; conditions: read-out: AC50
Cytochrome P450 1A2 = biological target: T1, Cytochrome P450 1A2 (Homo sapiens, UniProt P05177);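 note: PubChem cytochrome P450 panel assay, CYP1A2 panel member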
T1 sequence (P05177 whole entry): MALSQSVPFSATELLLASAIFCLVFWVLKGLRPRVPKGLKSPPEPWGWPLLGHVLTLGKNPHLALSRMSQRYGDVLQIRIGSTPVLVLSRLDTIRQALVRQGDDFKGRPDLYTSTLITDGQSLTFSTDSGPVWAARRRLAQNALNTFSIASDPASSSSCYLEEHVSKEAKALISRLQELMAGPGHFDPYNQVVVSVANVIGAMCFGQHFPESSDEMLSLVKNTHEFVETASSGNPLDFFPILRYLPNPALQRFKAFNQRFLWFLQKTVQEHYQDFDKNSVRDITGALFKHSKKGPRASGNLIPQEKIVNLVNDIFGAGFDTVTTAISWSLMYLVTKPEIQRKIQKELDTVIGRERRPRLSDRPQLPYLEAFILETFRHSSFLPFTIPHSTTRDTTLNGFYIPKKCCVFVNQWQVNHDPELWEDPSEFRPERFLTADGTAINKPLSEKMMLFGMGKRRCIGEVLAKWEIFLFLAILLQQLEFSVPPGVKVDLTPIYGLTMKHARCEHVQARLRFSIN

Cytochrome P450 2C9 = Cytochrome P450 2C9 (Homo sapiens, UniProt P11712)
[1] = biological target: T2, Heat shock factor protein 1 (Mus musculus, UniProt P38532); assay: enhancement of HSF1-driven luciferase signal – cell-based, NIH3T3, luminescence, dose retest, confirmation (AID 435004); type: functional;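 note: stress induced by proteasome inhibitor MG132 added 30 min after compound; luciferase reporter driven by HSF1 response element in NIH3T3 cells; actives raise luminescence as potentiators of the MG132 stress response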
T2 sequence (P38532 whole entry): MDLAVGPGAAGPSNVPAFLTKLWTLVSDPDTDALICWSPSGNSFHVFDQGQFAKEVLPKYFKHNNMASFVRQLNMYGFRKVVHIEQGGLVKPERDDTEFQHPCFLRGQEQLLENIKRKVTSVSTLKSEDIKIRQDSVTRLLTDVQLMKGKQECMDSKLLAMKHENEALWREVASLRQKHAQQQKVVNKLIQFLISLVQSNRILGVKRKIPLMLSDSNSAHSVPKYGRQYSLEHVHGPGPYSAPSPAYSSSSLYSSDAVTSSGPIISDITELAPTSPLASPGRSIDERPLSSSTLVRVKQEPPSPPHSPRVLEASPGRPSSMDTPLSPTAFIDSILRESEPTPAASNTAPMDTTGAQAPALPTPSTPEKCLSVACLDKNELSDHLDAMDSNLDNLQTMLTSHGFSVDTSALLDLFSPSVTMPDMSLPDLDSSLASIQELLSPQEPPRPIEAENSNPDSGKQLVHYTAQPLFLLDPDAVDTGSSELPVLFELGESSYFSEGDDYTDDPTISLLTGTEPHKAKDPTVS

Cytochrome P450 3A4 = Cytochrome P450 3A4 (Homo sapiens, UniProt P08684);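 note: CYP3A4 tested as one member of a cytochrome P450 panel screen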
[2] = tested on: Streptococcus sp. 'group A'; assay: Streptococcus pyogenes SK(-)GAS viability under kanamycin – luminescence, BacTiterGlo, confirmation, counter-screen for streptokinase expression inhibitor project, dose response (AID 1900); type: functional, organism-based
Streptokinase A = biological target: T3, Streptokinase A (Streptococcus pyogenes serotype M1, UniProt P10520); assay: viability-normalized secreted streptokinase activity reduction – plasminogen activation absorbance, OD405, dose response (AID 1914); type: functional, Streptococcus pyogenes M1 GAS;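 note: secreted streptokinase activity via plasminogen activation per viability signal from cell pellet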
T3 sequence (P10520 whole entry): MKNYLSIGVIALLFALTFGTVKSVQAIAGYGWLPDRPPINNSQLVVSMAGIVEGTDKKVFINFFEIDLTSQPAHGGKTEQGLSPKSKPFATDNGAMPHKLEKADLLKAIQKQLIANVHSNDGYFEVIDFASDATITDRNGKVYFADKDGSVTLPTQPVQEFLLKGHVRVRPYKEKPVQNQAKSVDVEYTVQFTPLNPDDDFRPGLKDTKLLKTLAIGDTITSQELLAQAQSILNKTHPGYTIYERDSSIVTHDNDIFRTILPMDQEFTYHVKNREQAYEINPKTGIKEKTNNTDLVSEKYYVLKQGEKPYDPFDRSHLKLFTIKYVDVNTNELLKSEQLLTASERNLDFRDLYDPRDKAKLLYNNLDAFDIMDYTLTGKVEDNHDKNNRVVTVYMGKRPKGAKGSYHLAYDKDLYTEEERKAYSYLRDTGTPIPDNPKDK

Streptococcus = assay: GAS UMAA2166 growth inhibition – luminescence, BacTiterGlo, counter-screen for streptokinase expression inhibitor project, dose response (AID 1915); type: functional, organism-based;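 note: potency for reduction of bacterial viability or growth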
[3] = biological target: T4, RNA-binding protein pos-1 (Caenorhabditis elegans, UniProt G5EF15); assay: disruptors of C. elegans POS-1 RNA interaction – biochemical, fluorescence polarization, dose response (AID 1964);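 note: purified POS-1 fused to maltose binding protein made in E. coli; potency of compounds blocking POS-1 binding to fluorescent RNA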
T4 sequence (G5EF15 whole entry): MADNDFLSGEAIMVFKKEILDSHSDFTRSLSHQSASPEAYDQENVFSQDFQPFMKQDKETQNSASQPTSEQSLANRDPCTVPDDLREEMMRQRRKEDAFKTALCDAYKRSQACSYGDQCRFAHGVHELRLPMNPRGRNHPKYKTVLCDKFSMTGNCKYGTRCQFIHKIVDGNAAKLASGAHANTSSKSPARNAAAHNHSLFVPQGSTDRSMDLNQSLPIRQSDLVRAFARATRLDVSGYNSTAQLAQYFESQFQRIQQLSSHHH

[4] = biological target: T5, Zinc finger protein mex-5 (Caenorhabditis elegans, UniProt Q9XUB2); assay: potency of MEX-5 RNA-binding blockers – biochemical, C. elegans, fluorescence polarization, dose response (AID 1960)
T5 sequence (Q9XUB2 whole entry): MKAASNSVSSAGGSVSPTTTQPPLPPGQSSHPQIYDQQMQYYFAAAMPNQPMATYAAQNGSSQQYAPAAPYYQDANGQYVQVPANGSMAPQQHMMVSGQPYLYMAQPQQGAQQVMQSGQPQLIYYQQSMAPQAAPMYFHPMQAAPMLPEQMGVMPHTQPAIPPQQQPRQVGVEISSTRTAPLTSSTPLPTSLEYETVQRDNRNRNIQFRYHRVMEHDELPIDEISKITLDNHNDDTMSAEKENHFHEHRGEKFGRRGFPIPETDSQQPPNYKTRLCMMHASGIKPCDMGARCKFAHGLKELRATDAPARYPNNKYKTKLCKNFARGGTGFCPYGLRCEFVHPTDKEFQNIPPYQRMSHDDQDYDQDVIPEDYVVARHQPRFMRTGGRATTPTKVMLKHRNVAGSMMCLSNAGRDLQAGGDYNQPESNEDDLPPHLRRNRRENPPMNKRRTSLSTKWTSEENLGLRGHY

Cytochrome P450 2C19, sequence (P33261 whole entry): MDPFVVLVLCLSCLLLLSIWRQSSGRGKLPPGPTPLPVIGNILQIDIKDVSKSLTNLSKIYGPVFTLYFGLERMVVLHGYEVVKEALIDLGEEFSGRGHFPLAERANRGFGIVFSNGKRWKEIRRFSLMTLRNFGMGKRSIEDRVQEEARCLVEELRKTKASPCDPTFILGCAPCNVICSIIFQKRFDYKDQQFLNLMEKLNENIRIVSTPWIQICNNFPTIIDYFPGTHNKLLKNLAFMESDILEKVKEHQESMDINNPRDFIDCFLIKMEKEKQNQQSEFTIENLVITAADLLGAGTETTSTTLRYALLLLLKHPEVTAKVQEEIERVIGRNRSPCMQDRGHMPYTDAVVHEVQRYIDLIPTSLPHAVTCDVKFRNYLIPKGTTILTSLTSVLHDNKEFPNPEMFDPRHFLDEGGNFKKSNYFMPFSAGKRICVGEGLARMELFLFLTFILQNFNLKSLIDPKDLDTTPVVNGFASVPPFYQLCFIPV
Cytochrome P450 2C9, sequence (P11712 whole entry): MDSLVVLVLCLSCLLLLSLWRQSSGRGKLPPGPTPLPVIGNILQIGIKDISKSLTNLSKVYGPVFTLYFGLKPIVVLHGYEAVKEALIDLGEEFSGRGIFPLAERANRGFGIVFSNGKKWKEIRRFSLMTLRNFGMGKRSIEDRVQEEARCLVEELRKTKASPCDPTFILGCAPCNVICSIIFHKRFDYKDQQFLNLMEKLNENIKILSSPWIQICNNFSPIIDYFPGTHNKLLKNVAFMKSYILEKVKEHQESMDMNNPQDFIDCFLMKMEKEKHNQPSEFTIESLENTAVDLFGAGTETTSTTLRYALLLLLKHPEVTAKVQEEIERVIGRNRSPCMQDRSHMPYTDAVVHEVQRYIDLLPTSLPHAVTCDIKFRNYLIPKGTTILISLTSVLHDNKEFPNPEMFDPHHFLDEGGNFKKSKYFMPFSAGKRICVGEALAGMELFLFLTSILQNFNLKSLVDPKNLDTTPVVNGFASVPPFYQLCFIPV
Cytochrome P450 3A4, sequence (P08684 whole entry): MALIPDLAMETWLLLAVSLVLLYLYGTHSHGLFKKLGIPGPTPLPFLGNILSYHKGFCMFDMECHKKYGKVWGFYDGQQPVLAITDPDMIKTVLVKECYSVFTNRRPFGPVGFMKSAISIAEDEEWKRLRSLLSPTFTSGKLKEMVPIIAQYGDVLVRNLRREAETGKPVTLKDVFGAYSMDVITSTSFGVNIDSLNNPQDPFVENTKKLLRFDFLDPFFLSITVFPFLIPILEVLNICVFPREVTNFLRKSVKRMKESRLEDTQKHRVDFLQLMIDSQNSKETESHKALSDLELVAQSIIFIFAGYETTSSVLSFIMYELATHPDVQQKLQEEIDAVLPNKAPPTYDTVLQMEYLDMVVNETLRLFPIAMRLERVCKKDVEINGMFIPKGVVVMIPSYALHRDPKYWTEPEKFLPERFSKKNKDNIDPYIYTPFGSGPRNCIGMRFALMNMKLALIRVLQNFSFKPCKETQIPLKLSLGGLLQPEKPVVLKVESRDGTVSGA

`Cc1nn(C)cc1C(=O)NN=C(S)Nc1ccccc1` was tested, and the AC50 (Cytochrome P450 2C19) was 22.4 µM (inconclusive), the AC50 (Cytochrome P450 1A2) was 15.8 µM (inconclusive) and the AC50 (Cytochrome P450 2C9) was 39.8 µM (inconclusive).
In the case of `N#CCc1c(C#N)c(N)nc(N2CCN(S(=O)(=O)c3ccccc3F)CC2)c1C#N`, the EC50 [1] is reported as > 260 µM (inactive).
For `CN1CC[C@@]2(CCCN(C(=O)c3ccncc3)C2)C1`, the AC50 (Cytochrome P450 3A4) was 31.6 µM (inconclusive).
With `COc1ccc(S(=O)(=O)Nc2ccccc2C(F)(F)F)cc1` the EC50 [1] was > 260 µM (inactive).
With `Cc1ccc(C(c2nnnn2CC2CCCO2)N2CCN(C(=O)c3ccco3)CC2)cc1` (configuration not stated) the AC50 (Cytochrome P450 2C9) was 25.1 µM (inconclusive).
With `O=C(c1cc(C(F)(F)F)cc(C(F)(F)F)c1)N1CCC2(CC1)CN(Cc1ccncc1)C2` the AC50 (Cytochrome P450 1A2) was 20 µM (inconclusive) and the AC50 (Cytochrome P450 3A4) was 15.8 µM (inconclusive).
For `Oc1ccc([C@@H]2CNCc3sccc32)cc1O`, the AC50 (Cytochrome P450 3A4) was 15.8 µM (inconclusive).
For `COc1ccc(Nc2nnc(-c3ccc(N4CCOCC4)c([N+](=O)[O-])c3)c3ccccc23)cc1`, the AC50 (Cytochrome P450 2C19) was 15.8 µM (inconclusive) and the AC50 (Cytochrome P450 3A4) was 7.94 µM (inconclusive).
With `COc1ccc(NS(=O)(=O)c2ccc(NC(=O)c3cnn4c(C(F)F)cc(-c5ccc(C)cc5)nc34)cc2)cc1` the AC50 (Cytochrome P450 2C19) was 2.24 µM (inconclusive), the AC50 (Cytochrome P450 1A2) was 0.891 µM (inconclusive) and the AC50 (Cytochrome P450 2C9) was 3.55 µM (inconclusive).
In the case of `Cc1nc2ncnn2c(C)c1CCC(=O)NCc1ccccc1`, the AC50 (Cytochrome P450 3A4) is reported as 17.8 µM (inconclusive).
For `C[C@H]1O[C@@H](CC(=O)O)Cc2c(O)c3c(c(O)c21)C(=O)C=C(C1=CC(=O)c2c(O)c4c(c(O)c2C1=O)C[C@H](CC(=O)O)O[C@@H]4C)C3=O`, the AC50 (Cytochrome P450 2C9) was 7.94 µM (inconclusive).
For `O=C(Nc1cccn2ncnc12)C(F)(F)F`, the EC50 [1] was > 260 µM (inactive).
`COc1cccc(-c2cc(C(F)(F)F)nc(N3CCCCC3)n2)c1` was tested, and the EC50 [2] was 5.13 µM (active), the EC50 (Streptokinase A) was 4.92 µM (active) and the EC50 (Streptococcus) was 19 µM (active). The AC50 (Cytochrome P450 3A4) was 20 µM (inconclusive) and the AC50 (Cytochrome P450 2C9) was 0.355 µM (inconclusive).
For `COc1ccc(N2CCN(Cc3nc4c(c(=O)n(C)c(=O)n4C)n3CC(C)=O)CC2)cc1`, the AC50 (Cytochrome P450 2C9) was 28.2 µM (inconclusive).
With `Cn1cc(-c2nc3cnc(N4CCNCC4)nc3n(-c3ccccc3)c2=O)c2ccccc21` the AC50 (Cytochrome P450 3A4) was 20 µM (inconclusive).
For `CCN(CC)CCN1C(=O)C(O)=C(C(=O)c2cc3cccc(OC)c3o2)C1c1ccc(F)cc1` (configuration not stated), the EC50 [3] was > 300 µM (not active) and the EC50 [4] was > 300 µM (not active).
For `Cc1c(Nc2cc(N3CCCC(C)C3)c3nonc3c2[N+](=O)[O-])c(=O)n(-c2ccccc2)n1C` (configuration not stated), the AC50 (Cytochrome P450 2C9) was 2.51 µM (inconclusive).
`Cc1cc(C)c(S(=O)(=O)N2CCCC(C(=O)NCCC3=CCCCC3)C2)c(C)c1` (configuration not stated) was tested, and the EC50 [1] was > 260 µM (inactive).
For `C[C@H]1COC(=O)[C@H](Cc2ccccc2)NC(=O)[C@@H](C)COC(=O)[C@H](Cc2ccccc2)NC1=O`, the AC50 (Cytochrome P450 3A4) was 3.98 µM (inconclusive).
`CCOC(=O)C1CCN(C(=O)c2ccc3c(Cl)c4c(nc3c2)CCCC4)CC1` was tested, and the EC50 [1] was 15.8 µM (active).
`CCCCN1C(=O)NC(=O)/C(=C\NCCN2CCCCC2)C1=O` was tested, and the AC50 (Cytochrome P450 3A4) was 20 µM (inconclusive).
For `Cc1ccc2c(c1)C1C=CCC1C(C(=O)NCCCN1CCOCC1)N2` (configuration not stated), the EC50 [3] was > 300 µM (not active) and the EC50 [4] was > 300 µM (not active).
For `O=C(c1[nH]o[n+](=O)c1C(=O)c1csc2ccccc12)c1csc2ccccc12`, the AC50 (Cytochrome P450 3A4) was 3.16 µM (inconclusive).
In the case of `CC(C)N1CCc2c(sc(NC(=O)c3ccc(S(=O)(=O)N(C)CC4CCCO4)cc3)c2C(N)=O)C1` (configuration not stated), the EC50 [3] is reported as 203 µM (active), the EC50 [2] is reported as > 150 µM (not active) and the EC50 [4] is reported as > 300 µM (not active). The EC50 (Streptokinase A) was > 150 µM (not active) and the EC50 (Streptococcus) was > 150 µM (not active).
For `O=C(O)CN1C(=O)/C(=C/c2ccccc2Br)Oc2ccccc21`, the EC50 [1] was > 260 µM (inactive).
`COCCn1c(=O)c(-c2cc(F)cc(F)c2)nc2cnc(OC)nc21` was tested, and the AC50 (Cytochrome P450 2C19) was 39.8 µM (inconclusive) and the AC50 (Cytochrome P450 2C9) was 39.8 µM (inconclusive).
With `NC(=O)CI` [IODOACETAMIDE] the AC50 (Cytochrome P450 2C19) was 39.8 µM (inconclusive), the AC50 (Cytochrome P450 1A2) was 31.6 µM (inconclusive) and the AC50 (Cytochrome P450 2C9) was 39.8 µM (inconclusive).
For `Cc1nn(-c2ccccc2)c2sc(C(=O)N(Cc3ccco3)C(C)C(=O)NC(C)(C)C)cc12` (configuration not stated), the EC50 [1] was > 260 µM (inactive).
For `CN(C)c1ccc(CNC(=O)c2ccc(CNc3c(N4CCCCC4)c(=O)c3=O)cc2)cc1`, the EC50 [1] was > 260 µM (inactive).
For `c1ccc(Nc2c(-c3ccco3)nc3ccccn23)cc1`, the EC50 [1] was 151 µM (active).
For `O=c1c(-c2ccc(F)c(F)c2)nc2cncnc2n1C1CC1`, the AC50 (Cytochrome P450 3A4) was 12.6 µM (inconclusive).
`COc1ccc2c(c1)c(C(=O)CN1CCCCC1)c(C)n2C` was tested, and the EC50 [1] was > 260 µM (inactive).
`Cc1ccccc1N(C(=O)Cc1cccs1)C(C(=O)NCC1CCCO1)c1cccnc1` (configuration not stated) was tested, and the AC50 (Cytochrome P450 2C19) was 28.2 µM (inconclusive), the AC50 (Cytochrome P450 3A4) was 1 µM (inconclusive) and the AC50 (Cytochrome P450 2C9) was 22.4 µM (inconclusive).
For `COC(=O)c1cc2c(ccn2-c2ccc(F)cc2)n1Cc1ccc(C#N)cc1`, the EC50 [1] was > 260 µM (inactive).
In the case of `COc1ccc(C2Nc3ccccc3C(=O)N2Cc2ccco2)cc1COc1ccc(F)cc1` (configuration not stated), the EC50 [1] is reported as > 260 µM (inactive).
`CC(=C\c1ccco1)/C=C1/SC(=S)N(CC(=O)O)C1=O` was tested, and the EC50 [3] was > 300 µM (not active) and the EC50 [4] was > 300 µM (not active).
`CC1(C)Oc2cc(N)c([N+](=O)[O-])cc2O1` was tested, and the AC50 (Cytochrome P450 2C9) was 35.5 µM (inconclusive).
`O=C(O)c1cc2cc(Cc3cccnc3)ccc2o1` was tested, and the AC50 (Cytochrome P450 3A4) was 25.1 µM (inconclusive).
In the case of `COc1cc(C(=O)NC(c2ccccc2)c2ccccc2)cc(OC)c1C`, the EC50 [3] is reported as > 300 µM (not active) and the EC50 [4] is reported as > 300 µM (not active).
